Counter-ions that a name gives are not always drawn.
Row | Structure (SMILES) | melting point
1 | CCN(CC)CCOc1ccc(NC(=O)C#Cc2ccc(C(F)(F)F)cc2Cl)cc1 [Example 3.38, 3-(2-chloro-4-trifluoromethylphenyl)propynoic acid-[4-(2-diethylaminoethoxy)phenyl]amide] | 194 to 197 °C
2 | CCCN(CCOc1ccc(NC(=O)C#Cc2ccc(C(F)(F)F)cc2Cl)cc1OC)CC1CC1 (as salt: hydrochloride) [Example 4.279, 3-(2-chloro-4-trifluoromethylphenyl)propynoic acid-{4-[2-(cyclopropylmethylpropylamino)ethoxy]-3-methoxyphenyl}amide hydrochloride] | 185 to 188 °C
3 | CCN(CC)CCOc1ccc(NC(=O)C#Cc2ccc(C(F)(F)F)cc2Cl)cc1NS(C)(=O)=O [Example 4.23, 3-(2-chloro-4-trifluoromethylphenyl)propynoic acid-[4-(3-diethylaminoethoxy)-3-methanesulfonylaminophenyl]amide] | 57 to 60 °C
4 | C[C@@H]1C[C@H](C)CN(Cc2ccc(/C=C/C(=O)Nc3ccc(-c4ccc(Cl)cc4)cc3)cc2)C1 [Example 5.3, (E)-N-(4′-chlorobiphenyl-4-yl)-3-[4-(cis-3,5-dimethylpiperidin-1-ylmethyl)phenyl]acrylamide] | 217 to 218 °C
5 | O=C(C#Cc1ccc(CCN2CCCC2)cc1)Nc1ccc(Cl)cc1 [Example 2.2, 3-[4-(2-pyrrolidin-1-ylethyl)phenyl]propynoic acid-4-chlorophenylamide] | 153 to 154 °C
6 | CN(Cc1ccc(C#CC(=O)Nc2ccc(-c3ccc(Cl)cc3)cc2)cc1)C1CCCC1 [Example 1.425] | 217 to 219 °C
7 | CCN(CC)CCOc1ccc(N(C)C(=O)C#Cc2ccc(C(F)(F)F)cc2Cl)cc1 [Example 3.39] | 135 to 138 °C
8 | CN(Cc1ccc(/C=C/C(=O)Nc2ccc(-c3ccc(Cl)cc3)cc2)cc1)C1CCNCC1 (as salt: acetate) [Example 5.36, (E)-N-(4′-chlorobiphenyl-4-yl)-3-{4[(methylpiperidin-4-ylamino)methyl]phenyl}acrylamide×trifluoroacetic acid acetate] | 207 to 208 °C
9 | CN(C(=O)C#Cc1ccc(CN2CCC(N3CCCC3)CC2)cc1)c1ccc(-c2ccc(Cl)cc2)cc1 (as salt: trifluoroacetate) [Example 1.24, 3-[4-(4-pyrrolidin-1-ylpiperidin-1-ylmethyl)phenyl]propynoic acid-(4′-chlorobiphenyl-4-yl)methylamideditrifluoroacetate] | 161 to 164 °C
10 | CCN(CC)CCOc1ccc(NC(=O)C#Cc2cccnc2)cc1Cl [Example 4.285, 3-pyridin-3-ylpropynoic acid-[3-chloro-4-(2-diethylaminoethoxy)phenyl]amide] | 118 to 120 °C
11 | CCN(CC)CCOc1ccc(NC(=O)C#Cc2ccc(C(F)(F)F)cc2Cl)cc1N [Example 4.22, 3-(2-chloro-4-trifluoromethylphenyl)propynoic acid-[3-amino-4-(2-diethylaminoethoxy)phenyl]amide] | 127 to 130 °C
12 | CCN(CC)CCOc1ccc(NC(=O)C#Cc2ccc(C(F)(F)F)cc2Cl)cc1F [Example 4.25, 3-(2-chloro-4-trifluoromethylphenyl)propynoic acid-[4-(3-diethylaminoethoxy)-3-fluorophenyl]amide] | 85 to 88 °C

Continued, values first:

Row | melting point | Structure (SMILES)
13 | 201 to 204 °C | O=C(CCc1ccc(CNCC2CCCCC2)cc1)Nc1ccc(-c2ccc(Cl)cc2)cc1 [Example 6.22, N-(4′-chlorobiphenyl-4-yl)-3-{4-[(cyclohexylmethylamino)methyl]phenyl}propionamide]
14 | 193 to 194 °C | O=C(CCc1ccc(CN2CCOCC2)cc1)Nc1ccc(-c2ccc(Cl)cc2)cc1 [Example 6.4, N-(4′-chlorobiphenyl-4-yl)-3-(4-morpholin-4-ylmethylphenyl)propionamide]
15 | 108 to 109 °C | COCCN(Cc1ccc(CCC(=O)Nc2ccc(-c3ccc(Cl)cc3)cc2)cc1)CC(C)(C)O [Example 6.14, N-(4′-chlorobiphenyl-4-yl)-3-(4-{[(2-hydroxy-2-methylpropyl)-(2-methoxyethyl)amino]methyl}phenyl)propionamide]
16 | 183 to 184 °C | O=C(CCc1ccc(CN2CCCC2)cc1)Nc1ccc(-c2ccc(Cl)cc2)cc1 [Example 6.11, N-(4′-chlorobiphenyl-4-yl)-3-(4-pyrrolidin-1-ylmethylphenyl)propionamide]
17 | 150 to 151 °C | CC1CCN(Cc2ccc(CCC(=O)Nc3ccc(-c4ccc(Cl)cc4)cc3)cc2)CC1 [Example 6.2, N-(4′-chlorobiphenyl-4-yl)-3-[4-(4-methylpiperidin-1-ylmethyl)phenyl]propionamide]
18 | 165 °C | CC(C)N(Cc1ccc(CCC(=O)Nc2ccc(-c3ccc(Cl)cc3)cc2)cc1)C1CCCCC1 [Example 6.40, N-(4′-chlorobiphenyl-4-yl)-3-{4-[(cyclohexylisopropylamino)methyl]phenyl}propionamide]
19 | 119 °C | CN(C(=O)CCc1ccc(CN2CCC3(CCCC3)CC2)cc1)c1ccc(-c2ccc(Cl)cc2)cc1 [Example 6.45, 3-[4-(8-azaspiro[4.5]dec-8-ylmethyl)phenyl]-N-(4′-chlorobiphenyl-4-yl)-N-methylpropionamide]
20 | 191 to 192 °C | O=C(CCc1ccc(CNCC2CC2)cc1)Nc1ccc(-c2ccc(Cl)cc2)cc1 [Example 6.15, N-(4′-chlorobiphenyl-4-yl)-3-{4-[(cyclopropylmethylamino)methyl]phenyl}propionamide]
21 | 169 to 170 °C | O=C(CCc1ccc(CN2CC[C@@H](O)C2)cc1)Nc1ccc(-c2ccc(Cl)cc2)cc1 [Example 6.29, N-(4′-chlorobiphenyl-4-yl)-3-[4-((R)-3-hydroxypyrrolidin-1-ylmethyl)phenyl]propionamide]
22 | 187 to 188 °C | O=C(Nc1ccc(-c2ccc(Cl)cc2)cc1)C1CC1c1ccc(CN2CCOCC2)cc1 (centres unmarked) [Example 6.217, 2-(4-morpholin-4-ylmethylphenyl)cyclopropanecarboxylic acid (4′-chlorobiphenyl-4-yl)amide]
23 | 122 to 124 °C | CN(CCOc1ccccc1)Cc1ccc(CCC(=O)Nc2ccc(-c3ccc(Cl)cc3)cc2)cc1 [Example 6.20, N-(4′-chlorobiphenyl-4-yl)-3-(4-{[methyl-(2-phenoxyethyl)amino]methyl}phenyl)propionamide]
24 | 168.8 °C | O=C(CCc1ccc(CN2CCC(N3CCCCC3)C2)cc1)Nc1ccc(-c2ccc(Cl)cc2)cc1 (centres unmarked) [Example 6.25, N-(4′-chlorobiphenyl-4-yl)-3-[4-(3-piperidin-1-ylpyrrolidin-1-ylmethyl)phenyl]propionamide]
25 | 162 to 163 °C | CN(Cc1ccc(CCC(=O)Nc2ccc(-c3ccc(Cl)cc3)cc2)cc1)CC1CCOCC1 [Example 6.19, N-(4′-chlorobiphenyl-4-yl)-3-(4-{[methyl-(tetrahydropyran-4-ylmethyl)amino]methyl}phenyl)propionamide]
26 | 138 °C | COCCN(C)Cc1ccc(CCC(=O)Nc2ccc(-c3ccc(Cl)cc3)cc2)cc1 [Example 6.17, N-(4′-chlorobiphenyl-4-yl)-3-(4-{[(2-methoxyethyl)methylamino]methyl}phenyl)propionamide]
